Reference: EPA's ToxRefDB 2

Key:
mouse [1] = settings: Sub-acute repeat dose toxicity, b6c3f1, Oral, Gavage/Intubation, dose end: 14 day, group: systemic
rat [2] = settings: Sub-acute repeat dose toxicity, fischer, Oral, Gavage/Intubation, dose end: 14 day, group: systemic
rat [3] = settings: Carcinogenicity, fischer, Oral, Gavage/Intubation, dose end: 103 week, group: systemic
rat [4] = settings: Subchronic oral toxicity in rodents, fischer, Gavage/Intubation, dose end: 13 week, group: systemic
mouse [5] = settings: Subchronic oral toxicity in rodents, b6c3f1, Gavage/Intubation, dose end: 13 week, group: systemic
mouse [6] = settings: Carcinogenicity, b6c3f1, Oral, Gavage/Intubation, dose end: 103 week, group: systemic
mouse [7] = settings: Subchronic oral toxicity in rodents, b6c3f1, Feed, dose end: 13 week, group: systemic
rat [8] = settings: Sub-acute repeat dose toxicity, fischer, Oral, Feed, dose end: 14 day, group: systemic
rabbit = settings: Prenatal developmental toxicity study, new zealand white, Oral, Gavage/Intubation, dose end: 19 GD
mouse [9] = settings: Multigenerational reproductive toxicity study, cd1, Oral, Feed, dose end: 2 generation
mouse [10] = settings: Prenatal developmental toxicity study, cd1, Oral, Feed, dose end: 15 GD
rat [11] = settings: Subchronic oral toxicity in rodents, fischer, Feed, dose end: 13 week, group: systemic
rat [12] = settings: Carcinogenicity; fischer; Oral; Feed; dose end: 103 week; group: systemic; systemic / in life observation / clinical signs / muscle fasciculation + systemic / in life observation / clinical signs / skeletal muscle …
mouse [13] = settings: Carcinogenicity; b6c3f1; Oral; Feed; dose end: 103 week; group: systemic; systemic / in life observation / clinical signs / [other] + systemic / pathology microscopic / ovary / atrophy + systemic / pathology …
mouse [14] = settings: Sub-acute repeat dose toxicity, b6c3f1, Oral, Feed, dose end: 14 day, group: systemic
[15] = systemic / in life observation / body weight / body weight
[16] = systemic / in life observation / body weight / body weight + systemic / in life observation / clinical signs / abnormal posture + systemic…
[17] = systemic / pathology microscopic / liver / vacuolization cytoplasmic + systemic / pathology microscopic / liver / degeneration
[18] = systemic / pathology microscopic / liver / vacuolization cytoplasmic + systemic / pathology microscopic / liver / degeneration + systemic / …
[19] = systemic / pathology microscopic / liver / necrosis + systemic / pathology microscopic / liver / vacuolization cytoplasmic + systemic / in …
[20] = systemic / pathology microscopic / liver / vacuolization cytoplasmic
[21] = systemic / pathology microscopic / liver / vacuolization cytoplasmic + systemic / in life observation / body weight / body weight + systemic…
[22] = systemic / pathology microscopic / liver / vacuolization cytoplasmic + systemic / in life observation / clinical signs / defecation (…
[23] = systemic / in life observation / body weight / body weight + systemic / in life observation / body weight / body weight gain + systemic / in…
[24] = systemic / in life observation / body weight / body weight gain + systemic / in life observation / clinical signs / [other] + systemic / in …
[25] = systemic / in life observation / clinical signs / lethargy + systemic / in life observation / clinical signs / fur (altered appearance) + …
[26] = group: developmental, developmental / developmental malformation / general / [other]
[27] = group: maternal, reproductive / reproductive performance / resorptions / resorptions + systemic / in life observation / body weight / body weight + systemic…
[28] = group: offspring, systemic / in life observation / clinical signs / cannibalism
[29] = group: offspring, systemic / in life observation / clinical signs / cannibalism + developmental / offspring survival late / [other] / [other] + systemic / in …
[30] = group: parental, systemic / in life observation / body weight / body weight + systemic / in life observation / clinical signs / cannibalism + systemic / in …
[31] = group: parental, systemic / in life observation / food consumption / food consumption + systemic / in life observation / water consumption / water …
[32] = group: reproductive, reproductive / offspring survival early / birth index / birth index + reproductive / reproductive performance / dystocia / dystocia + …
[33] = group: reproductive, reproductive / reproductive performance / estrous cycle / abnormal
[34] = group: developmental, systemic / in life observation / body weight / fetal weight
[35] = group: maternal, reproductive / offspring survival early / dead fetuses / dead fetuses
[36] = systemic / in life observation / clinical signs / [other]
[37] = systemic / in life observation / clinical signs / [other] + systemic / in life observation / clinical signs / fur (altered appearance) + …

OC[P+](CO)(CO)CO.[Cl-] [Tetrakis(hydroxymethyl)phosphonium chloride] was tested, and the LEL (mouse [1]; [15]) was 18.8 mg/kg/day, the LOAEL (mouse [1]; [15]) was 150 mg/kg/day and the NEL (mouse [1]; [15]) was less than 18.8 mg/kg/day. It also gave an NOAEL (mouse [1]; systemic / in life observation / body weight / body weight + systemic / in life observation / mortality / mortality) of 75 mg/kg/day, an LEL (rat [2]; [15]) of 18.8 mg/kg/day and an LOAEL (rat [2]; [15]) of 37.5 mg/kg/day. The NEL (rat [2]; [16]) was 9.4 mg/kg/day, the NOAEL (rat [2]; [16]) was 18.8 mg/kg/day and the LOAEL (rat [3]; [17]) was 3.75 mg/kg/day. For the same molecule, the NOAEL (rat [3]; [17]) was less than 3.75 mg/kg/day, the LEL (rat [3]; [18]) was 3.75 mg/kg/day and the NEL (rat [3]; [18]) was less than 3.75 mg/kg/day. The NEL (rat [4]; systemic / in life observation / body weight / body weight + systemic / pathology microscopic / liver / necrosis + systemic / pathology …) was 3.75 mg/kg/day, the LOAEL (rat [4]; [19]) was 30 mg/kg/day and the NOAEL (rat [4]; [19]) was 15 mg/kg/day. The LEL (rat [4]; [20]) was 7.5 mg/kg/day, the LEL (mouse [5]; [20]) was 15 mg/kg/day and the NEL (mouse [5]; [21]) was 4.5 mg/kg/day. The NOAEL (mouse [5]; [21]) was 15 mg/kg/day, the LOAEL (mouse [5]; systemic / pathology microscopic / liver / vacuolization cytoplasmic + systemic / pathology microscopic / liver / necrosis) was 45 mg/kg/day and the LOAEL (mouse [6]; [20]) was 7.5 mg/kg/day. For the same molecule, the NOAEL (mouse [6]; [20]) was less than 7.5 mg/kg/day, the LEL (mouse [6]; [22]) was 7.5 mg/kg/day and the NEL (mouse [6]; [22]) was less than 7.5 mg/kg/day.
NC(=O)N/N=C/c1ccc([N+](=O)[O-])o1 [Nitrofurazone] showed an LOAEL (mouse [7]; [23]) greater than 188 mg/kg/day, an NEL (mouse [7]; [23]) of 46.5 mg/kg/day and an NOAEL (mouse [7]; [23]) of no less than 188 mg/kg/day. For the same molecule, the LEL (mouse [7]; systemic / in life observation / clinical signs / [other] + systemic / in life observation / clinical signs / excitation + systemic / in …) was 93 mg/kg/day, the LOAEL (rat [8]; [24]) was 125 mg/kg/day and the NOAEL (rat [8]; [24]) was 62.5 mg/kg/day. For the same molecule, the LEL (rat [8]; [25]) was 31.5 mg/kg/day, the NEL (rat [8]; [25]) was less than 31.5 mg/kg/day and the LEL (rabbit; [26]) was 20 mg/kg/day. The LOAEL (rabbit; [26]) was 20 mg/kg/day, the NEL (rabbit; [26]) was 15 mg/kg/day and the NOAEL (rabbit; [26]) was 15 mg/kg/day. The LOAEL (rabbit; group: maternal, reproductive / reproductive performance / resorptions / resorptions) was 20 mg/kg/day, the NEL (rabbit; [27]) was 5 mg/kg/day and the NOAEL (rabbit; [27]) was 15 mg/kg/day. For the same molecule, the LEL (rabbit; group: maternal, systemic / in life observation / body weight / body weight) was 10 mg/kg/day, the LEL (mouse [9]; [28]) was 15 mg/kg/day and the NEL (mouse [9]; [28]) was less than 15 mg/kg/day. The LOAEL (mouse [9]; [29]) was greater than 112 mg/kg/day, the NOAEL (mouse [9]; [29]) was no less than 112 mg/kg/day and the LOAEL (mouse [9]; [30]) was greater than 112 mg/kg/day. For the same molecule, the NOAEL (mouse [9]; [30]) was no less than 112 mg/kg/day, the LEL (mouse [9]; [31]) was 15 mg/kg/day and the NEL (mouse [9]; [31]) was less than 15 mg/kg/day. For the same molecule, the LOAEL (mouse [9]; [32]) was greater than 112 mg/kg/day, the NOAEL (mouse [9]; [32]) was no less than 112 mg/kg/day and the LEL (mouse [9]; [33]) was 15 mg/kg/day. For the same molecule, the NEL (mouse [9]; [33]) was less than 15 mg/kg/day, the LEL (mouse [10]; [34]) was 81.7 mg/kg/day and the LOAEL (mouse [10]; [34]) was greater than 81.7 mg/kg/day. It also gave an NEL (mouse [10]; [34]) of 41.2 mg/kg/day, an NOAEL (mouse [10]; [34]) of no less than 81.7 mg/kg/day and an LEL (mouse [10]; [35]) of 41.2 mg/kg/day. For the same molecule, the LOAEL (mouse [10]; [35]) was 41.2 mg/kg/day, the NEL (mouse [10]; [35]) was 13.6 mg/kg/day and the NOAEL (mouse [10]; [35]) was 13.6 mg/kg/day. For the same molecule, the NEL (rat [11]; systemic / organ weight / liver / relative to body weight + systemic / in life observation / body weight / body weight + systemic / in life …) was 7.5 mg/kg/day, the LOAEL (rat [11]; systemic / pathology microscopic / testes / degeneration) was 15.5 mg/kg/day and the NOAEL (rat [11]; systemic / pathology microscopic / testes / degeneration + systemic / in life observation / body weight / body weight + systemic / in life …) was 7.5 mg/kg/day. For the same molecule, the LEL (rat [11]; systemic / pathology microscopic / testes / degeneration + systemic / organ weight / liver / relative to body weight) was 15.5 mg/kg/day, the LEL (rat [12]) was 11 mg/kg/day and the LOAEL (rat [12]) was 11 mg/kg/day. For the same molecule, the NEL (rat [12]) was less than 11 mg/kg/day, the NOAEL (rat [12]) was less than 11 mg/kg/day and the LEL (mouse [13]) was 14 mg/kg/day. The LOAEL (mouse [13]) was 14 mg/kg/day, the NEL (mouse [13]) was less than 14 mg/kg/day and the NOAEL (mouse [13]) was less than 14 mg/kg/day. For the same molecule, the LOAEL (mouse [14]; [36]) was 94.5 mg/kg/day, the NOAEL (mouse [14]; [36]) was less than 94.5 mg/kg/day and the LEL (mouse [14]; [37]) was 94.5 mg/kg/day. The NEL (mouse [14]; [37]) was less than 94.5 mg/kg/day.
